In patent US8642585B2, “Indanyloxydihydrobenzofuranylacetic acids” (Boehringer Ingelheim International GmbH, priority 2012, dated 2014) one finds EC50 data, which are given here for 23 molecules.

As usually defined, the EC50 is the concentration giving half of the maximal effect. A lower EC50 goes with greater potency.

This test deals with human GPR40 receptor (Homo sapiens, UniProt O14842). Kind of test: Assay I: IP1 accumulation (IPOne HTRF) in 1321N1 cells stably expressing human GPR40. The format is cell-based. Conditions: 1321N1 cells expressing human GPR40, stimulation 1 hour at 37° C., 10% CO2, final LiCl 50 mM. How it is done: IP1 accumulation measurements using the IPOne assay system—1321N1 cells stably expressing human GPR40 receptor (Euroscreen, Belgium) are seeded 24 h before the assay in black clear-bottom collagen-coated 384-well plates in culture medium containing 10% FCS, 1% Na-Pyruvate and 400 μg/mL G418. IP1 is assayed according to the Manufacturers description (Cisbio Bioassays, France). In brief, the assay is started by substitution of the culture medium by stimulation buffer (Hepes 10 mM, CaCl2 1 mM, MgCl2 0.5 mM, KCl 4.2 mM, NaCl 146 mM and glucose 5.5 mM, pH 7.4) without LiCl. Cells are stimulated for 1 hour at 37° C., 10% CO2 by addition of the compounds that are diluted in stimulation buffer containing LiCl yielding a final LiCl concentration of 50 mM. Assays are stopped by adding HTRF-conjugates (IP1-d2 and Anti-IP1 cryptate Tb) and lysis buffer, provided by the manufacturer. After an incubation time of 1 hour at room temperature plates are measured using an EnVision™, Perkin Elmer. The obtained fluorescence ratios at 665/615 nM are then used to calculate the pEC50 values using GraphPad Prism 5 (Graphpad Software Inc, USA) by interpolation using an IP1 reference curve and subsequent sigmoidal curve fitting allowing for a variable hill slope.
On the technique in general: Time-resolved FRET reads energy transfer from a long-lived donor to a nearby acceptor.

Chain of human GPR40 receptor (O14842 whole entry): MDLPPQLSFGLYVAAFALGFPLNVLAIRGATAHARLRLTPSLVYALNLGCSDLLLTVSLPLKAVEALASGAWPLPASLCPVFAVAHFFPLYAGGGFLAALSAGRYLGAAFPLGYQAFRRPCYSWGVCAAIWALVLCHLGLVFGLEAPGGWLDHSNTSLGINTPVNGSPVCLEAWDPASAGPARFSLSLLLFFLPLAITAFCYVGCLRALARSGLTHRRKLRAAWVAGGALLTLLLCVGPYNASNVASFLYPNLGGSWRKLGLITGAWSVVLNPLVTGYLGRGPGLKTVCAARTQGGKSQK

Regarding `Cc1cc(OCC2CCCO2)cc(C)c1-c1ccc(F)c2c1CC[C@H]2Oc1ccc2c(c1)OC[C@H]2CC(=O)O` (stereo partly drawn) [Example 3, 2-((3S)-6-((1R)-4-(2,6-dimethyl-4-((tetrahydrofuran-2-yl)methoxy)phenyl)-7-fluoro-2,3-dihydro-1H-inden-1-yloxy)-2,3-dihydrobenzofuran-3-yl)acetic acid], the EC50 is 6 nM.

Molecule `CNC(=O)c1cc(C)c(-c2ccc(F)c3c2CC[C@H]3Oc2ccc3c(c2)OC[C@H]3CC(=O)O)c(C)c1` [Example 62, 2-((S)-6-((R)-4-(2,6-Dimethyl-4-(methylcarbamoyl)phenyl)-7-fluoro-2,3-dihydro-1H-inden-1-yloxy)-2,3-dihydrobenzofuran-3-yl)acetic acid] returned an EC50 of 11 nM. The same measure for `Cc1cc(OCC(C)(C)CN(C)C)cc(C)c1-c1ccc(F)c2c1CC[C@H]2Oc1ccc2c(c1)OC[C@H]2CC(=O)O` [Example 22, 2-((S)-6-((R)-4-(4-(3-(Dimethylamino)-2,2-dimethylpropoxy)-2,6-dimethylphenyl)-7-fluoro-2,3-dihydro-1H-inden-1-yloxy)-2,3-dihydrobenzofuran-3-yl)acetic acid]: 17 nM; for `Cc1cc(C2=CCOCC2)cc(C)c1-c1ccc(F)c2c1CC[C@H]2Oc1ccc2c(c1)OC[C@H]2CC(=O)O` [Example 24, 2-((S)-6-((R)-4-(4-(3,6-dihydro-2H-pyran-4-yl)-2,6-dimethylphenyl)-7-fluoro-2,3-dihydro-1H-inden-1-yloxy)-2,3-dihydrobenzofuran-3-yl)acetic acid]: 3 nM; for `Cc1cc(O[C@H]2CCN(S(C)(=O)=O)C2)cc(C)c1-c1ccc(F)c2c1CC[C@H]2Oc1ccc2c(c1)OC[C@H]2CC(=O)O` [Example 34, 2-((S)-6-((R)-4-(2,6-Dimethyl-4-((S)-1-(methylsulfonyl)pyrrolidin-3-yloxy)phenyl)-7-fluoro-2,3-dihydro-1H-inden-1-yloxy)-2,3-dihydrobenzofuran-3-yl)acetic acid]: 11 nM. Take `Cc1cc(OC2CCOCC2)cc(C)c1-c1ccc(F)c2c1CC[C@H]2Oc1ccc2c(c1)OC[C@H]2CC(=O)O` [Example 7, 2-((S)-6-((R)-4-(2,6-Dimethyl-4-(tetrahydro-2H-pyran-4-yloxy)phenyl)-7-fluoro-2,3-dihydro-1H-inden-1-yloxy)-2,3-dihydrobenzofuran-3-yl)acetic acid]: the EC50 is 6 nM. Regarding `Cc1cc(OCCN2CCCC2=O)cc(C)c1-c1ccc(F)c2c1CC[C@H]2Oc1ccc2c(c1)OC[C@H]2CC(=O)O` [Example 23, 2-((S)-6-((R)-4-(2,6-Dimethyl-4-(2-(2-oxopyrrolidin-1-yl)ethoxy)phenyl)-7-fluoro-2,3-dihydro-1H-inden-1-yloxy)-2,3-dihydrobenzofuran-3-yl)acetic acid], the EC50 worked out at 10 nM. As for `Cc1cc(OCC2CN(S(C)(=O)=O)C2)cc(C)c1-c1ccc(F)c2c1CC[C@H]2Oc1ccc2c(c1)OC[C@H]2CC(=O)O` [Example 29, 2-((S)-6-((R)-4-(2,6-Dimethyl-4-((1-(methylsulfonyl)azetidin-3-yl)methoxy)phenyl)-7-fluoro-2,3-dihydro-1H-inden-1-yloxy)-2,3-dihydrobenzofuran-3-yl)acetic acid], a half-maximal effect (EC50) was put at 11 nM. `Cc1cc(OC(C)(C)C#N)cc(C)c1-c1ccc(F)c2c1CC[C@H]2Oc1ccc2c(c1)OC[C@H]2CC(=O)O` [Example 21, 2-((S)-6-((R)-4-(4-(2-Cyanopropan-2-yloxy)-2,6-dimethylphenyl)-7-fluoro-2,3-dihydro-1H-inden-1-yloxy)-2,3-dihydrobenzofuran-3-yl)acetic acid] returned an EC50 of 9 nM. The same measure for `Cc1cc(OCC(C)(C)CO)cc(C)c1-c1ccc(F)c2c1CC[C@H]2Oc1ccc2c(c1)OC[C@H]2CC(=O)O` [Example 15, 2-((S)-6-((R)-7-Fluoro-4-(4-(3-hydroxy-2,2-dimethylpropoxy)-2,6-dimethylphenyl)-2,3-dihydro-1H-inden-1-yloxy)-2,3-dihydrobenzofuran-3-yl)acetic acid]: 5 nM. The value for `COCCCS(=O)(=O)c1cc(C)c(-c2ccc(F)c3c2CC[C@H]3Oc2ccc3c(c2)OC[C@H]3CC(=O)O)c(C)c1` [Example 53, ((S)-6-{(R)-7-Fluoro-4-[4-(3-methoxy-propane-1-sulfonyl)-2,6-dimethyl-phenyl]-indan-1-yloxy}-2,3-dihydro-benzofuran-3-yl)-acetic acid] was 1220 nM. The same measure for `Cc1c(OC2CCS(=O)(=O)CC2)cccc1-c1ccc(F)c2c1CC[C@H]2Oc1ccc2c(c1)OC[C@H]2CC(=O)O` [Example 38, ((S)-6-{(R)-4-[3-(1,1-Dioxo-hexahydro-1-thiopyran-4-yloxy)-2-methyl-phenyl]-7-fluoro-indan-1-yloxy}-2,3-dihydro-benzofuran-3-yl)-acetic acid]: 76 nM; for `Cc1cc(OCC(C)(C)O)cc(C)c1-c1ccc(F)c2c1CC[C@H]2Oc1ccc2c(c1)OC[C@H]2CC(=O)O` [Example 10, 2-((S)-6-((R)-7-Fluoro-4-(4-(2-hydroxy-2-methylpropoxy)-2,6-dimethylphenyl)-2,3-dihydro-1H-inden-1-yloxy)-2,3-dihydrobenzofuran-3-yl)acetic acid]: 9 nM. `Cc1cc(C(=O)N2CCOCC2)cc(C)c1-c1ccc(F)c2c1CC[C@H]2Oc1ccc2c(c1)OC[C@H]2CC(=O)O` [Example 63, 2-((S)-6-((R)-4-(2,6-Dimethyl-4-(morpholine-4-carbonyl)phenyl)-7-fluoro-2,3-dihydro-1H-inden-1-yloxy)-2,3-dihydrobenzofuran-3-yl)acetic acid] yielded an EC50 of 38 nM. The same measure for `Cc1cc(OCCC(C)(C)O)cc(C)c1-c1ccc(F)c2c1CC[C@H]2Oc1ccc2c(c1)OC[C@H]2CC(=O)O` [Example 4, 2-((S)-6-((R)-7-Fluoro-4-(4-(3-hydroxy-3-methylbutoxy)-2,6-dimethylphenyl)-2,3-dihydro-1H-inden-1-yloxy)-2,3-dihydrobenzofuran-3-yl)acetic acid]: 5 nM. Regarding `Cc1cc(OCC(=O)N(C)C)cc(C)c1-c1ccc(F)c2c1CC[C@H]2Oc1ccc2c(c1)OC[C@H]2CC(=O)O` [Example 13, 2-((S)-6-((R)-4-(4-(2-(Dimethylamino)-2-oxoethoxy)-2,6-dimethylphenyl)-7-fluoro-2,3-dihydro-1H-inden-1-yloxy)-2,3-dihydrobenzofuran-3-yl)acetic acid], the concentration giving a half-maximal response (EC50) was 63 nM.

The molecule `Cc1cc(OCC2CCOC2)cc(C)c1-c1ccc(F)c2c1CC[C@H]2Oc1ccc2c(c1)OC[C@H]2CC(=O)O` (stereo partly drawn) [Example 2, 2-((3S)-6-((1R)-4-(2,6-dimethyl-4-((tetrahydrofuran-3-yl)methoxy)phenyl)-7-fluoro-2,3-dihydro-1H-inden-1-yloxy)-2,3-dihydrobenzofuran-3-yl)acetic acid] yielded an EC50 of 5 nM.

`COCC(C)(C)COc1cc(C)c(-c2ccc(F)c3c2CC[C@H]3Oc2ccc3c(c2)OC[C@H]3CC(=O)O)c(C)c1` [Example 16, 2-((S)-6-((R)-7-Fluoro-4-(4-(3-methoxy-2,2-dimethylpropoxy)-2,6-dimethylphenyl)-2,3-dihydro-1H-inden-1-yloxy)-2,3-dihydrobenzofuran-3-yl)acetic acid] displayed an EC50 of 5 nM. The same measure for `Cc1cc(OCCNC(=O)OC(C)(C)C)cc(C)c1-c1ccc(F)c2c1CC[C@H]2Oc1ccc2c(c1)OC[C@H]2CC(=O)O` [Example 65, 2-((S)-6-((R)-4-(4-(2-(tert-Butoxycarbonylamino)ethoxy)-2,6-dimethylphenyl)-7-fluoro-2,3-dihydro-1H-inden-1-yloxy)-2,3-dihydrobenzofuran-3-yl)acetic acid]: 34 nM; for `Cc1cc(OCC2CN(S(=O)(=O)C(C)C)C2)cc(C)c1-c1ccc(F)c2c1CC[C@H]2Oc1ccc2c(c1)OC[C@H]2CC(=O)O` [Example 31, 2-((S)-6-((R)-7-Fluoro-4-(4-((1-(isopropylsulfonyl)azetidin-3-yl)methoxy)-2,6-dimethylphenyl)-2,3-dihydro-1H-inden-1-yloxy)-2,3-dihydrobenzofuran-3-yl)acetic acid]: 17 nM; for `Cc1cc(C(=O)N(C)C)cc(C)c1-c1ccc(F)c2c1CC[C@H]2Oc1ccc2c(c1)OC[C@H]2CC(=O)O` [Example 61, 2-((S)-6-((R)-4-(4-(Dimethylcarbamoyl)-2,6-dimethylphenyl)-7-fluoro-2,3-dihydro-1H-inden-1-yloxy)-2,3-dihydrobenzofuran-3-yl)acetic acid]: 51 nM. The value for `Cc1cc(OCCCS(C)(=O)=O)cc(C)c1-c1ccc(F)c2c1CC[C@H]2Oc1ccc2c(c1)OC[C@H]2CC(=O)O` [Example 57, 2-((S)-6-((R)-4-(2,6-Dimethyl-4-(3-(methylsulfonyl)propoxy)phenyl)-7-fluoro-2,3-dihydro-1H-inden-1-yloxy)-2,3-dihydrobenzofuran-3-yl)acetic acid] was 26 nM; that for `COc1cc(COc2cc(C)c(-c3ccc(F)c4c3CC[C@H]4Oc3ccc4c(c3)OC[C@H]4CC(=O)O)c(C)c2)ccn1` [Example 147, 2-((S)-6-((R)-7-fluoro-4-(4-((2-methoxypyridin-4-yl)methoxy)-2,6-dimethylphenyl)-2,3-dihydro-1H-inden-1-yloxy)-2,3-dihydrobenzofuran-3-yl)acetic acid] was 2 nM.
